We go through 18 compounds from paper PMC9386204, “Design, synthesis, and in silico studies of quinoline-based-benzo[d]imidazole bearing different acetamide derivatives as potent α-glucosidase inhibitors” (Scientific Reports, 2022).

Data set [1] can be described thus: Concentrations of precipitation. It is filed as physicochemical. An excerpt:
Table 1 α-Glucosidase inhibitory activity of compounds 9a–r. | column: Concentrations of precipitation (µM)

For data set [2], the target named is T1, α-glucosidase (Saccharomyces cerevisiae, UniProt P53341). As to the kind of experiment: α-Glucosidase inhibitory assay. The following applies: for IC50: α-glucosidase inhibition, mean ± SD.
T1 sequence (P53341 whole entry): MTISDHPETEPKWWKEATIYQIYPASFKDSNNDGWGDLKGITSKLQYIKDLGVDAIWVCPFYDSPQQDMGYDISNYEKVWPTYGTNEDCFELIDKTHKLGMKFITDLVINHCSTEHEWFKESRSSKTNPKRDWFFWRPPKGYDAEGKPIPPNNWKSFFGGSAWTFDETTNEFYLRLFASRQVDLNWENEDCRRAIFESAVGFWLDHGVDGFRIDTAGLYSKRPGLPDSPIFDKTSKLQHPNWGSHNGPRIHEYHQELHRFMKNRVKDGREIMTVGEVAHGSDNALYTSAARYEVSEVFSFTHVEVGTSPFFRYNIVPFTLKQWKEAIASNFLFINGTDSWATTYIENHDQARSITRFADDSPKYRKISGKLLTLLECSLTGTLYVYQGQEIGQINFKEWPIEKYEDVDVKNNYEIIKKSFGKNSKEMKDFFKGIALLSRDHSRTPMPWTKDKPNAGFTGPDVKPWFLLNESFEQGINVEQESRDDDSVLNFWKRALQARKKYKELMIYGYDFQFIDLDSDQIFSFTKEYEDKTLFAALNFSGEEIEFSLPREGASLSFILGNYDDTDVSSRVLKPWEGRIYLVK
Description: The α-glucosidase inhibitory activities of all synthesized derivatives were assayed according to the previously reported procedure[9],[36].
Data set [3] deals with T1, α-glucosidase. As to the kind of experiment: Enzyme kinetic studies (Lineweaver–Burk plot, secondary plot). The format is biochemical. Particulars: Km increased, Vmax unchanged. The procedure: A Lineweaver–Burk plot was generated to identify the type of inhibition and the Michaelis–Menten constant (Km) value was determined from the plot between reciprocal of the substrate concentration (1/[S]) and reciprocal of enzyme rate (1/V) over various inhibitor concentrations. The experimental inhibitor constant (Ki) value was constructed by secondary plots of the inhibitor concentration [I] versus Km[6].

Take “2-((3-(1H-benzo[d]imidazol-2-yl)naphthalen-2-yl)thio)-N-(4-fluorophenyl)acetamide [Compound 9c]”: the Concentrations of precipitation in data set [1] is not below 200 µM. 13.5 ± 0.6 µM corresponded to half-maximal inhibition on α-glucosidase [2] (IC50).

In data set [1], `O=C(CSc1nc2ccccc2cc1-c1nc2ccccc2[nH]1)Nc1ccccc1` [Compound 9a, 2-((3-(1H-benzo[d]imidazol-2-yl)quinolin-2-yl)thio)-N-phenylacetamide] yielded a Concentrations of precipitation not below 200 µM.

As for `O=C(CSc1nc2ccccc2cc1-c1nc2ccccc2[nH]1)Nc1ccccc1F` [Compound 9b, 2-((3-(1H-benzo[d]imidazol-2-yl)quinolin-2-yl)thio)-N-(2-fluorophenyl)acetamide], the melting point was 183 to 185 °C. For the same compound, in data set [1], the Concentrations of precipitation was not below 200 µM. Further, at α-glucosidase [2] (versus 9a), the “fold loss of potency compared to 9a” value is “around the twofold loss of potency”.

`O=C(CSc1nc2ccccc2cc1-c1nc2ccccc2[nH]1)Nc1cccc(Cl)c1` [Compound 9d, 2-((3-(1H-benzo[d]imidazol-2-yl)quinolin-2-yl)thio)-N-(3-chlorophenyl)acetamide] registered a melting point of 190 to 192 °C. Moreover, the type of inhibition entry on α-glucosidase [3] is recorded as “competitive inhibition”. Also, the Concentrations of precipitation in data set [1] was not below 200 µM.

On to `O=C(CSc1nc2ccccc2cc1-c1nc2ccccc2[nH]1)Nc1ccc(Cl)cc1` [Compound 9e, 2-((3-(1H-benzo[d]imidazol-2-yl)quinolin-2-yl)thio)-N-(4-chlorophenyl)acetamide], for which the melting point fell in the range of 185 to 187 °C. Further, in data set [1], the Concentrations of precipitation was not below 200 µM.

`O=C(CSc1nc2ccccc2cc1-c1nc2ccccc2[nH]1)Nc1ccccc1Br` [Compound 9f, 2-((3-(1H-benzo[d]imidazol-2-yl)quinolin-2-yl)thio)-N-(2-bromophenyl)acetamide] came in with a melting point of 181 to 183 °C. The Concentrations of precipitation in data set [1] is on record as not below 200 µM.

In turn, `O=C(CSc1nc2ccccc2cc1-c1nc2ccccc2[nH]1)Nc1ccc(Br)cc1` [Compound 9g, 2-((3-(1H-benzo[d]imidazol-2-yl)quinolin-2-yl)thio)-N-(4-bromophenyl)acetamide] returned a melting point of 185 to 187 °C. Further, the Concentrations of precipitation in data set [1] is not below 200 µM.

Take `O=C(CSc1nc2ccccc2cc1-c1nc2ccccc2[nH]1)Nc1c(Cl)cccc1Cl` [Compound 9h, 2-((3-(1H-benzo[d]imidazol-2-yl)quinolin-2-yl)thio)-N-(2,6-dichlorophenyl)acetamide]: the melting point was in the range of 188 to 190 °C. In data set [1], this compound returned a Concentrations of precipitation not below 200 µM.

Compound `O=C(CSc1nc2ccccc2cc1-c1nc2ccccc2[nH]1)Nc1ccc([N+](=O)[O-])cc1` [Compound 9i, 2-((3-(1H-benzo[d]imidazol-2-yl)quinolin-2-yl)thio)-N-(4-nitrophenyl)acetamide] gave a melting point of 180 to 182 °C. This compound also returned a Concentrations of precipitation in data set [1] not below 200 µM.

Compound `Cc1ccccc1NC(=O)CSc1nc2ccccc2cc1-c1nc2ccccc2[nH]1` [Compound 9j] yielded a Concentrations of precipitation in data set [1] not below 200 µM.

As to `Cc1ccc(NC(=O)CSc2nc3ccccc3cc2-c2nc3ccccc3[nH]2)cc1` [Compound 9k], the melting point was in the range of 181 to 183 °C. The same compound yielded a Concentrations of precipitation in data set [1] not below 200 µM.

Consider `COc1ccc(NC(=O)CSc2nc3ccccc3cc2-c2nc3ccccc3[nH]2)cc1` [Compound 9l, 2-((3-(1H-benzo[d]imidazol-2-yl)quinolin-2-yl)thio)-N-(4-methoxyphenyl)acetamide], for which the melting point fell in the range of 191 to 193 °C. In data set [1], this compound came in with a Concentrations of precipitation not below 200 µM.

`CCc1ccc(NC(=O)CSc2nc3ccccc3cc2-c2nc3ccccc3[nH]2)cc1` [Compound 9m, 2-((3-(1H-benzo[d]imidazol-2-yl)quinolin-2-yl)thio)-N-(4-ethylphenyl)acetamide] gave a melting point of 178 to 180 °C. In data set [1], this compound returned a Concentrations of precipitation not below 200 µM.

Take `Cc1cccc(NC(=O)CSc2nc3ccccc3cc2-c2nc3ccccc3[nH]2)c1C` [Compound 9n, 2-((3-(1H-benzo[d]imidazol-2-yl)quinolin-2-yl)thio)-N-(2,3-dimethylphenyl)acetamide]: the melting point is 185 to 187 °C. For the same compound, the Concentrations of precipitation in data set [1] is given as not below 200 µM.

As for `Cc1cccc(C)c1NC(=O)CSc1nc2ccccc2cc1-c1nc2ccccc2[nH]1` [Compound 9o, 2-((3-(1H-benzo[d]imidazol-2-yl)quinolin-2-yl)thio)-N-(2,6-dimethylphenyl)acetamide], the melting point lay in the range of 185 to 187 °C. In data set [1], the Concentrations of precipitation is not below 200 µM.

In data set [1], `O=C(CSc1nc2ccccc2cc1-c1nc2ccccc2[nH]1)Nc1ccc2ccccc2c1` [Compound 9p, 2-((3-(1H-benzo[d]imidazol-2-yl)quinolin-2-yl)thio)-N-(naphthalen-2-yl)acetamide] came in with a Concentrations of precipitation not below 200 µM. This compound registered an IC50 at α-glucosidase [2] of 17.7 ± 0.8 µM.

`O=C(CSc1nc2ccccc2cc1-c1nc2ccccc2[nH]1)NCc1ccccc1` [Compound 9q, 2-((3-(1H-benzo[d]imidazol-2-yl)quinolin-2-yl)thio)-N-benzylacetamide] registered a melting point of 183 to 185 °C. The Concentrations of precipitation in data set [1] was not below 200 µM.

In turn, `O=C(CSc1nc2ccccc2cc1-c1nc2ccccc2[nH]1)NCc1ccc(F)cc1` [Compound 9r, 2-((3-(1H-benzo[d]imidazol-2-yl)quinolin-2-yl)thio)-N-(4-fluorobenzyl)acetamide] had a melting point of 186 to 188 °C. For the same compound, the Concentrations of precipitation in data set [1] is not below 200 µM.

As a reminder, the IC50 is the concentration that inhibits the measured activity by half. One may read the melting point as the temperature of the solid-liquid transition.
